Patent US5091521A, “Cis-platinum complexes, a process for the preparation thereof, and pharmaceuticals containing these compounds” (priority 1986, dated 1992)

Columns and labels:
L1210 leukemia cells = test: Colonization by L1210 leukemia cells in soft agar (cytostatic activity in vitro); assay type: cell-based, mouse; details: L1210 colony formation in soft agar, 7 days
Protocol: The cytostatic activity of the compounds according to the invention is determined on L1210 leukemia cells of the mouse. In detail, the following test systems were used:
a) Colonization by L1210 leukemia cells in soft agar
In this test cytostatically active substances cause the number of colonies observed to be reduced compared to an untreated control. In detail, the test is carried out as follows:
500 leukemia cells per plate are incubated for 1 hour at 37° C. with different concentrations of the test substance. The cells are subsequently washed twice with McCoy 5A medium and finally poured out into petri dishes after adding 0.3% of agar. Controls are incubated only with fresh medium. Instead of incubating for one hour, different concentrations and test substances are in many cases mixed with the upper agar layer in order to thus achieve continuous exposition of the cells over the entire incubation time. After solidification of the agar, the plates are incubated in an incubator for 7 days at 37° C. (5% by volume of CO2, 95% relative atmospheric humidity). The number of colonies produced with a diameter of more than 60 μm is subsequently counted. The results are given as the number of colonies in the treated agar plate, in per cent of the untreated control. From the dose-action curve thus attained, the IC50 is determined as a measure of the activity of the substance.

NMRI mice = test: Determination of the acute toxicity; assay type: in vivo, mouse; details: 1 × i.p., survival on day 14
Protocol: b) Determination of the acute toxicity
In order to determine the acute toxicity, NMRI mice are injected intraperitoneally on day 0 with various doses of a test substance, dissolved in 0.5 ml of 5% glucose solution. Control groups receive only 0.5 ml of 5% strength glucose solution. 5 mice are used per concentration of the test substance. On day 14, the number of surviving mice is determined, and the LD5, LD50 and LD95 are determined from this according to the Lichtfield Wilcoxon method.

L1210 leukemia = test: In vivo activity of the platinum complexes against L1210 leukemia of the mouse; design: optimum Dose (greatest antitumoral effect), L1210: unit not given here; details: for T/C % L1210 (at optimum dose): mean survival time vs untreated control; for cytostatic activity in the "in vivo" test using the L1210 tumor cell line: in words
Protocol: c) In vivo activity of the platinum complexes against L1210 leukemia of the mouse
Ascitic fluid is removed under sterile conditions from DBA2 mice (female, 18-20 g) 7 days after implantation. The ascites is washed three times with PBS, counted, and adjusted to a cell number of 10^6 in 0.2 ml of PBS.
10^6 cells, suspended in 0.2 ml of PBS, are subsequently injected intraperitoneally into DBF1 mice (female, 18-20 g). 6 animals per group are employed for each substance concentration or as control.
Determination of the antitumoral activity
a) The animals are weighed on days 1 and 5 after injection of the test substance. A weight loss of more than 20% on day 5 is regarded as an indicator of a toxic substance action.
b) At the end of the experiment (death of all animals or surviving animals on day 60), the mean survival time of the animals in each group is determined, so long as at least 65% of the animals were still living on day 5 of the experiment. The average survival time is determined exclusively for animals dying during the experiment. Long-term survivors (LTS) are not taken into account in this calculation and are specified separately.
From the mean survival time (MST) of the […] group and of the control group (MSTc), the antitumoral activity (T/C) for each substance concentration is determined in per cent of the untreated control from the following formula: [formula]
The dose which causes the greatest antitumoral effect (optimal dosage) and in each case one dose step above and below this dose are collated in Table 1. Animals which are still living on day 60 of the experiment are listed separately as "long-term survivors".

Solubility in water = assay type: physicochemical
[1] = test system: tumor cells which are resistant towards cis-platin; test: Cross resistance to cis-diamminedichloroplatinum(II) in vitro / activity in cisplatin-resistant tumor cells; assay type: cell-based; details: in words
[2] = treatment program 5 × i.p./i.p.
[3] = treatment program 3 × i.p./i.p.
[4] = treatment program 2 × i.p./i.p.

SMILES | IC50 (L1210 leukemia cells) | LD50 (NMRI mice) | Solubility in water (Solubility in water) | optimum Dose (greatest antitumoral effect), L1210 (L1210 leukemia; [3]) | T/C % L1210 (at optimum dose) (L1210 leukemia; [3]) | also measured
CC(CN)(CN)COCC(O)CO.[Cl][Pt][Cl] (stereo not drawn) [Compound 13, N,N'-(2-(2',3'-dihydroxypropyloxymethyl)-2-methyl-1,3-propanediamine)dichloroplatinum(II)] | 1.25 µg/mL | 57.3 mg/kg | 25 mg/mL | – | – | optimum Dose (greatest antitumoral effect), L1210 (L1210 leukemia; [2]): 8; T/C % L1210 (at optimum dose) (L1210 leukemia; [2]): 156%
COCC(C)(CN)CN.O=C([O-])CC(=O)[O-].[Pt+2] [Compound 30, N,N'-(2-methyloxymethyl-2-methyl-1,3-propanediamine)platinum(II) malonate] | 1.4 µg/mL | – | – | – | – | –
CCC(CN)(CN)COC.[Cl][Pt][Cl] [Compound 12, N,N'-(2-ethyl-2-methoxymethyl-1,3-propanediamine)dichloro-platinum(II)] | 0.5 µg/mL | 19 mg/kg | – | 3 | 227% | cytostatic activity in the "in vivo" test using the L1210 tumor cell line (L1210 leukemia): high cytostatic activity; cross resistance in vitro to cis-diamminedichloroplatinum(II) [1]: only partially cross resistant
CCC(CN)(CN)COC.O=C([O-])C1(C(=O)[O-])CCC1.[Pt+2] [Compound 32, N,N'-(2-ethyl-2-methyloxymethyl-1,3-propanediamine)platinum(II) 1,1-cyclobutanedicarboxylate] | 3.6 µg/mL | 437 mg/kg | 70 mg/mL | – | – | T/C % L1210 (at optimum dose) (L1210 leukemia; [2]): 194%
CCC(CN)(CN)COC.O=C([O-])CC(=O)[O-].[Pt+2] [corresponding malonate derivative] | – | – | – | – | – | cytostatic activity in the "in vivo" test using the L1210 tumor cell line (L1210 leukemia): high cytostatic activity; cross resistance in vitro to cis-diamminedichloroplatinum(II) [1]: only partially cross resistant
COCC(C)(CN)CN.O=C([O-])C1(C(=O)[O-])CCC1.[Pt+2] [Compound 31, N,N'-(2-methyloxymethyl-2-methyl-1,3-propanediamine)platinum(II) 1,1-cyclobutanedicarboxylate] | 2.6 µg/mL | 250 mg/kg | 15 mg/mL | – | – | optimum Dose (greatest antitumoral effect), L1210 (L1210 leukemia; [4]): 112; LTS (Longterm survivor), L1210 (L1210 leukemia; treatment program 2 × i.p./i.p., optimum dose, animals living on day 60): 3/6; T/C % L1210 (at optimum dose) (L1210 leukemia; [4]): 226%
CC(=O)NC1(CO)C[NH][Pt]([Cl])([Cl])[NH]C1 [Compound 17, N,N'-(2-acetamido-2-hydroxymethyl-1,3-propanediamine)di-chloroplatinum(II)] | 1.1 µg/mL | 50 to 100 mg/kg | 10 mg/mL | 30 | 113% | –
N.N.[Cl][Pt][Cl] [Cisplatin, cis-diamminedichloroplatinum (II), reference compound] | 0.04 µg/mL | – | – | 4 | 157% | –
COCC(O)COCC(C)(CN)CN.[Cl][Pt][Cl] (stereo not drawn) [Compound 14, N,N'-(2-(2'-hydroxy-3'-methoxypropyloxymethyl)-2-methyl-1,3-propanediamine)dichloroplatinum(II)] | 0.75 µg/mL | 57.1 mg/kg | 16 mg/mL | 4 | 168% | –
COCC(C)(CN)CN.[Cl][Pt][Cl] [Compound 11, N,N'-(2-methoxymethyl-2-methyl-1,3-propanediamine)dichloro-platinum(II)] | 1.4 µg/mL | – | 3 mg/mL | – | – | –
CC(CN)(CN)CO[C@@H]1CC[C@H](O)[C@@H](CO)O1.[Cl][Pt][Cl] [Compound 15, N,N'-(2-(2',3'-didesoxy-alpha-D-erythrohexopyranosyloxy-methyl)-2-methyl-1,3-propanediamine)dichloroplatinum(II)] | 2.9 µg/mL | 1 to 5 mg/kg | 17 mg/mL | – | – | –
